Measured values reported in patent US20100076059A1, “METHOD OF EVALUATING COMPOUND EFFICACIOUS IN TREATING OBESITY BY USING Slc25a10” (priority 2003, published 2010).
Where no end group is shown, it is not given here.

Key:
[1] = system: S1c25a10 gene; test: S1c25a10 expression in white adipocytes (WAT) of mouse models, U74A / 25K1.8 chip; type: in vivo; details: non-treated C57BL/6N mice defined as 1
Experimental: (§1) A mouse model of obesity induced by administration of an NPY Y5 agonist was prepared in the following manner. Nine- to twelve-week-old male mice (C57BL/6J: Clea Japan) were raised under conditions with a room temperature of 23±2° C. and a humidity of 55±15%, with one mouse in each plastic cage. The mice were raised under a 12 hour lightness/darkness cycle, with lights on at 7:00 am and lights off at 7:00 pm. The mice were also given free access to feed (CE-2 (25.4 wt % protein, 50.3 wt % carbohydrate, 4.4 wt % lipid), Clea Japan) and water.
The mice were anesthetized with 80 mg/kg sodium pentobarbital (Dynabot) and a 28-gauge sterilized brain infusion cannula (Alzet Co.) was stereotactically implanted in the right cerebral ventricle. The cannula was positioned 0.4 mm behind and 0.8 mm to the side of the bregma, and to a depth of 2 mm, and was anchored vertically with respect to the cranial bone using dental cement. A polyvinyl chloride tube was used to connect the cannula to an osmotic pump (Model #2002: Alzet Co.) filled with 10 mM phosphate buffer containing 0.05% bovine serum albumin (BSA). A solution of D-Try^34 NPY in 10 mM PBS (containing 0.05% BSA) (prepared for 5 μg/day) was filled into the pump, and the pump was implanted subcutaneously at the back of the mouse for continuous infusion. An antibiotic (50 mg/kg cefamedine, product of Fujisawa Pharmaceutical Co., Ltd.) was also subcutaneously injected.
The mice were divided into three groups: a normally-fed group given infusion of the solvent alone (vehicle group); an obesity-induced group given infusion of D-Try^34 NPY (NYP Y5 agonist) with an increased food amount (ad lib fed group); and a group given infusion of D-Try^34 NPY but with food restricted to the same amount as the vehicle group (pair-fed group).
as §1, with “MCH (melanin-concentrating hormone)” for “an NPY Y5 agonist”, “Thirteen-week-old” for “Nine- to twelve-week-old”, “food” for “feed”, “water. […]” for “water.”
The mouse models prepared in Preparation Examples 1-4 were used for measurement of S1c25a10 expression in white adipocytes (WAT). The expression levels were measured by treating RNA extracted from white adipocytes from each mouse model using a mouse U74A chip (Affymetrix) and a mouse 25K1.8 chip (Rossetta).

[2] = system: human S1c25a10 gene; test: Suppression of human S1c25a10 expression by siRNA transfection (RNAi); type: cell-based; details: siRNA to human S1c25a10 gene
Text: (§2) First, a silencer siRNA construction kit (Ambion Inc.) was used to synthesize siRNA. Next, in order to determine the optimum sequences for human or mouse S1c25a10, twelve different sequences were examined based on suppression of S1c25a10 expression. FIG. 6(a) and (b) show the relative expression levels of S1c25a10 gene in each of the siRNA-transfected cells.
The sequence of each siRNA is shown below. The “Position” indicates the corresponding nucleic acid position of the human S1c25a10 gene (NM_012140) for each siRNA.
Next, siRNA-transfected cells were prepared. For siRNA transfection, the cells were seeded on a 6-well plate at a density of 2×10^4 cells/well. After 24 hours, the siRNA (H4 or H10) was transfected into the cells using Oligofectamine (Invitrogen). On the 2nd day after transfection, the cells were harvested and RNA was prepared using RNeasy (Qiagen). cDNA was prepared from the RNA by quantitative RT-PCR (Applied Biosystems), for quantitation of the S1c25a10 and ACC1 expression levels.

[3] = system: HEK293 cells; test: DiOC6 staining of mitochondrial proton gradient in HEK293 cells; type: cell-based; details: DiOC6-stained HEK293 cells
Experimental: First, HEK293 cells were seeded in a 6-well plate at a density of 2×10^6 cells/well. After 24 hours, S1c25a10 gene cloned in pcDNA 3.1 vector was transfected into the cells using Lipofectamine 2000. As a negative control there were used cells having only the vector transfected, and as positive controls there were used cells having mouse UCP1 transfected and cells having human UCP3 transfected.
After 48 hours from transfection of the gene, the mitochondrial gradient sensitivity-indicating agent DiOC6 (3-3′-dihexyloxacarbocyanine iodide) was used for staining. The staining was performed by treating the cells with 0.3 μM DiOC6 for 20 minutes followed by rinsing twice with PBS. DiOC6 binds to mitochondria in greater amount as the proton gradient increases, emitting strong fluorescence. On the other hand, it binds to mitochondria in lower amount as the proton gradient decreases, resulting in weaker fluorescent intensity.
FIG. 1(a) is a confocal micrograph showing DiOC6-stained HEK293 cells treated with CCCP (carbonyl cyanide m-chlorophenylhydrazone) which uncouples the intracellular mitochondrial proton gradient, and FIG. 1(b) is a photograph of HEK293 cells without CCCP treatment. With the untreated HEK293 cells, the intracellular mitochondria are clearly stained by outlining dots. […] It was thus confirmed that the mitochondria had been stained in a proton gradient-specific manner. […]

[4] = system: mouse S1c25a10 gene; test: Suppression of mouse S1c25a10 expression by siRNA transfection (RNAi); type: cell-based; details: siRNA to mouse S1c25a10 gene
Text: as §2
The nucleotide sequences of siRNA corresponding to the mouse S1c25a10 gene (NM_013770) are also shown below.

[5] = administered mice, ad lib fed (FF)

melanin-concentrating hormone (DFDMLRCMLGRVYRPCWQV; ends and bridges not checked; cysteine pairing not given here; UniProt P56942 147-165, looked up) [MCH, MCH infused i.c.v. to induce obesity in mice]
Slc25a10 expression [1, 5]: 1.7
Slc25a10 expression ([1]; pair feeding (PF) mice): 2.4

H4: siRNA to human S1c25a10 gene, Position 556, SEQ ID NOs: 9 and 10 (chain 1 AAACAGTCTCCTGAGACCCTCCCTGTCTC; chain 2 AAGAGGGTCTCAGGAGACTGTCCTGTCTC; listed as DNA, chemistry not given here)
S1c25a10 gene expression (inhibiting effect) [2]: particularly powerful inhibiting effects
S1c25a10 gene expression (inhibiting effect) ([2]; listed as siRNA consisting of nucleic acids of SEQ ID NOs: 9 and 10): powerfully inhibit S1c25a10 expression
S1c25a10 gene expression (inhibiting effect) ([2]; listed as siRNA consisting of the nucleic acids of SEQ ID NOs: 9 and 10): significantly reduce expression

N#CC(C#N)=NNc1cccc(Cl)c1 [CCCP, carbonyl cyanide m-chlorophenylhydrazone]
fluorescent intensity ([3]; confocal micrograph, versus untreated cells): significantly reduced
Mean fluorescent intensity ([3]; flow cytometer): 5.4

D-Try^34 NPY
Slc25a10 expression [1, 5]: 3.0
Slc25a10 expression ([1]; pair feeding (PF) mice): 1.9

M8: siRNA to mouse S1c25a10 gene, Position 1159, SEQ ID NOs: 41 and 42 (chain 1 AAGTGGCACCTCTGCCCTACTCCTGTCTC; chain 2 AAAGTAGGGCAGAGGTGCCACCCTGTCTC; listed as DNA, chemistry not given here)
S1c25a10 gene expression (inhibiting effect) [4]: particularly powerful inhibiting effects
S1c25a10 gene expression (inhibiting effect) ([4]; listed as siRNA consisting of nucleic acids of SEQ ID NOs: 41 and 42): powerfully inhibit S1c25a10 expression
S1c25a10 gene expression (inhibiting effect) ([4]; listed as siRNA consisting of the nucleic acids of SEQ ID NOs: 41 and 42): significantly reduce expression
